Experimental findings from US10888549B2, “Pharmaceutical agents targeting cancer stem cells” (THE JOHNS HOPKINS UNIVERSITY, priority 2016, dated 2021) are described below.

In one series the test system is YAP1. Description: YAP1 expression by western blotting. Type of series: cell-based, human. Here is the method: Whole cell lysates were extracted using RIPA buffer (Thermo Scientific) supplemented with 10 μL/mL Halt™ Protease Inhibitor Cocktail Kit (Life Technologies) and 30 μL/mL Halt™ Phosphatase Inhibitor Cocktail Kit (Life Technologies). The protein concentrations were determined using a Pierce™ BCA Protein Assay Kit (Life Technologies), and the protein were separated on NuPAGE® 4-12% Bis-Tris Gel (Life Technologies) according to the manufacturer's protocol. COX2 (D5H5), NANOG (D73G4), OCT4 (D7O5Z), CD133 (A3G6K), Snail (C15D3), ZEB1 (D80D3), Vimentin (D21H3), CDH2 (D4R1H), CDH1 (24E10), p-EGFR (D7A5), EGFR (D38B1), p-AKT (D9E), AKT (cat #, 9272), p-ERK (D13.14.4E), ERK (137F5), p-YAP1 (D9W2I), p-Src (cat #, 2101), Src (36D10), DNMT1 (D63A6), DNMT3A (D23G1), and DNMT3B (D7O7O) antibodies were obtained from Cell Signaling Technology (Danvers, Mass., USA), except for SOX2 (EPR3131; Abcam, Cambridge, USA), YAP1 (ab52771; Abcam), CD24 (cat #, AF5247-SP; R&D Systems, Minneapolis USA) and β-actin (A2228; Sigma-Aldrich). Secondary horseradish peroxidase (HRP)-conjugated antibodies were obtained from Cell Signaling Technology, and chemiluminescent detection of HRP-labeled antibodies was performed using Amersham ECL Prime Western Blotting Detection Reagent (GE Healthcare, Piscataway, USA). As loading control, β-actin was used.
Background: In western blotting, separated proteins are transferred to a membrane and probed.

Another series relates to urothelial CSCs. Description: Sphere formation assay (CSC properties). Type of series: cell-based, human. As to the method: Sphere formation was induced by culturing cells (2×10^4/well) in DMEM/Ham's F12 50/50 Mix (Mediatech) supplemented with B-27 (Life Technologies), 20 ng/mL FGF-basic (Peprotech), 20 ng/mL EGF (Peprotech). Cell culture was performed in ultra-low attachment 6 well plates (Corning, Lowell, USA) for 10 days. The medium was replaced every other day. Sphere formation was evaluated using the inverted phase-contrast microscope, and single sphere with a diameter larger than 100 μm was counted using NIS-Elements Microscope Imaging Software. To redifferentiate spheres, spheres were plated in standard growth medium with 10% FBS in dishes supporting cell attachment, and incubated for 7 days. For self-renewal assay, primary spheres were collected by gentle centrifugation (5 min at 400×g), dissociated with Stempro Accutase Cell Dissociation Reagent (Life Technologies), and mechanically disrupted with a pipette. The cell suspension was sieved through 40 μm cell strainer cap filter to achieve a single-cell suspension, and then equal numbers of alive cells were plated in ultralow attachment plates to generate the second spheres. Again, spheres were counted on day 14 and digested to generate the third Spheres. All the experiments were performed in triplicate and repeated at least three times.

Series [1] is described as follows: Body weight of treated mice. Type of series: in vivo. To be noted: compared with control. Here is the method:
For celecoxib and/or VP treatment, celecoxib (5 mg/kg) was administered via intraperitoneal (i.p.) injection once a day (17), and VP (50 mg/kg) was administered via i.p. every other day (18). EP4 antagonist ONO-AE3-208 (10 mg/kg) was administered via i.p. once a day (19). Control was applied with same volume (100 μL per injection) of 10% dimethyl sulphoxide in […] (Sigma-Aldrich). For GEM and CDDP (GC) treatment (i.p.), CDDP (6 mg/kg) was only applied after the first GEM (60 mg/kg) treatment on day 2, followed by three consecutive treatments of GEM on day 5, 8 and 11 (17). The next cycle was started on day 18, and the treatment was continued until tumor reached 2 cm in diameter. For erlotinib treatment, the mice were treated once a day, 6 days per week, by oral gavage with erlotinib (100 mg/kg) or control (PBS containing 0.5% methyl cellulose (Sigma-Aldrich) and 0.1% TWEEN 80) (20). Tumor size was measured at least every three days. […] To establish xenograft model with acquired resistance to erlotinib, erlotinib sensitive 5637 cells were injected subcutaneously into the both flanks of 4-5 week-old NSG mice, and the tumors were consecutively passaged from NSG mice treated with erlotinib and celecoxib until the development of refractory tumors. […]

Series [2] concerns promoters of miR-126, miR-296, and miR-200c. Description: Bisulfite sequencing of miRNA promoters. It is filed as cell-based, human. Particulars: spheroid cells.
The next series concerns MIRLET7BHG promoter. Description: Bisulfite sequencing of let-7 host gene promoter. Type of series: cell-based, human. Particulars: bladder cancer cells. Here is the method:
Cell pellets were digested with 1% sodium dodecyl sulfate and 50 μg/mL proteinase K (Roche, Nutley, USA) at 48° C. overnight. Isolation of genomic DNA from cell lines was performed with the phenol-chloroform extraction protocol followed by ethanol precipitation. Bisulfite treatment was conducted using an EpiTect Bisulfite Kit (QIAGEN, Valencia, USA), and was subsequently amplified via PCR using primers as shown in the following table. PCR products were purified using the QIAquick Gel Extraction kit (Qiagen), and sequenced by Genewiz DNA sequencing service (Genewiz, South Plainfield, USA). The data were analyzed using the Sequence Scanner v1.0 software (Life technologies). A methylation frequency of ≥50% of total CpG sites within the amplified region was considered “methylation-positive”. For demethylation, cells (1×10^6/T-75 flask) were treated with […] of the demethylating agent 5-Aza-dC (Sigma) dissolved in 50% acetic acid or were mock-treated with phosphate buffered saline (PBS) including the same amount of acetic acid every 24 hours for 5 days. When combined with the histone deacetylase inhibitor TSA (Sigma), 300 nmol/L TSA was added to the medium for the final 24 hours.

Where [3] appears, read: agent alone, bladder cancer cells.

Take `Cc1ccc(-c2cc(C(F)(F)F)nn2-c2ccc(S(N)(=O)=O)cc2)cc1` [celecoxib, Celecoxib]: the YAP1 expression result is on record as “no longer able to induce” in the series on YAP1 (COX2 inhibitor added to erlotinib, basal-type cells) and “induced” in the series on YAP1 (setting [3]). In addition, in the series with urothelial CSCs (COX2 inhibitor added to erlotinib, basal-type cells, 72 hours), the sphere formation result is “impaired”. In addition, the “sphere formation / sphere-forming ability” value in the series with urothelial CSCs (setting [3]) is given as “repressed”. In series [1], the “body weight loss of mice” value is listed as “did not observe body weight loss”. Besides, in series [2], the “promoter methylation of miRNAs (miR-126, miR-296, miR-200c)” value was “demethylated”. Moreover, the “promoter methylation of the let-7 host gene” value with MIRLET7BHG promoter is “demethylated”.
